This note sets out measurements from patent US20230286969A1, “AROMATIC SPIRO RING AMIDE DERIVATIVES FOR THE TREATMENT AND PROPHYLAXIS OF HEPATITIS B VIRUS INFECTION” (Hoffmann-La Roche Inc., priority 2020, published 2023).

Where two headings read alike, the source gives them in different places.

Common to all, as to format: cell-based
For data set [1], the system named is HBsAg. As to the kind of experiment: PHH HBV natural infection assay, HBsAg (alphalisa). The method in brief: (§1)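 Primary human hepatocytes infected with HBV at 200 GE/cell plus 4% PEG8000 for 24 h, then sandwich-cultured 72 h. Compounds were added in two refreshes 72 h apart. HBsAg and HBeAg in supernatant measured by AlphaLISA.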
Background: Alpha assays give light when donor and acceptor beads are brought close together.

In data set [2] the test system is primary human hepatocyte (PHH). As to the kind of experiment: PHH natural infection assay, cytotoxicity (Cell Counting Kit-8). As to conditions: HBV-infected primary human hepatocytes, CCK8, end of treatment. Summed up:
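HBV-infected at 200 GE/cell with 4% PEG8000 for 24 h, then sandwich-cultured 72 h in 1% DMSO and 0.25 mg/mL matrix gel. Compound added twice at 72-h intervals; supernatant HBsAg and HBeAg read by AlphaLISA, HBV DNA by quantitative fluorescence PCR kit. Cytotoxicity by CCK-8.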

Data set [3] concerns HBeAg. Description: PHH HBV natural infection assay, HBeAg (alphalisa). The method in brief: as §1
[4] abbreviates: read-out: HBsAg IC50; HBV-infected primary human hepatocytes, supernatant, compound medium refreshed two times with 72-hour interval.
[5] abbreviates: read-out: HbeAg IC50; HBV-infected primary human hepatocytes, supernatant, compound medium refreshed two times with 72-hour interval.

Take `O=C(NC1CC2(C1)CC(c1nc3cc(Cl)ccc3o1)C2)c1ccc([S+]([O-])CC2CC2)o1` (single isomer, unassigned) [Example 19-c, N-[6-(5-chloro-1,3-benzoxazol-2-yl)spiro[3.3]heptan-2-yl]-5-(cyclopropylmethylsulfinyl)furan-2-carboxamide]: the IC50 (usually the midpoint of a concentration-inhibition curve) in data set [1] (setting [4]) was found to be 2.42 µM; in data set [3] (setting [5]), 1.95 µM. For the same compound, the CC50 (as a rule, the concentration that lowers cell viability or growth by half) in data set [2] was above 10 µM.

In the case of `O=C(NC1CC2(C1)CC(c1nc3cc(Cl)ccc3o1)C2)c1ccc([S+]([O-])CC2CC2)o1` (single isomer, unassigned) [Example 19-d, N-[6-(5-chloro-1,3-benzoxazol-2-yl)spiro[3.3]heptan-2-yl]-5-(cyclopropylmethylsulfinyl)furan-2-carboxamide], the values for the IC50 in data set [1] (setting [4]) and in data set [3] (setting [5]) were 2.86 µM and 2.5 µM, respectively. This compound also registered a CC50 in data set [2] above 10 µM.

For `O=C(NC1CC2(C1)CC(c1nc3cc(Cl)ccc3o1)C2)c1ccc([S+]([O-])CC2CC2)o1` (single isomer, unassigned) [Example 19-b, N-[6-(5-chloro-1,3-benzoxazol-2-yl)spiro[3.3]heptan-2-yl]-5-(cyclopropylmethylsulfinyl)furan-2-carboxamide], the IC50 is 0.071 µM in data set [1] (setting [4]) and 0.053 µM in data set [3] (setting [5]). In data set [2], this compound yielded a CC50 above 10 µM.

Take `N=S(=O)(CC1CC1)c1ccc(C(=O)NC2CC3(C2)CC(c2nc4cc(Cl)ccc4o2)C3)o1` (single isomer, unassigned) [Example 54-c, N-[6-(5-chloro-1,3-benzoxazol-2-yl)spiro[3.3]heptan-2-yl]-5-(cyclopropylmethylsulfonimidoyl)furan-2-carboxamide]: the IC50 worked out at 5.84 µM in data set [1] (setting [4]) and 4.59 µM in data set [3] (setting [5]). Besides, the cytotoxic concentration (CC50) in data set [2] is above 10 µM.

For `CS(=N)(=O)c1ccc(C(=O)NC2CC3(C2)CC(c2nc4cc(Cl)ccc4o2)C3)o1` (single isomer, unassigned) [Example 52-b, N-[6-(5-chloro-1,3-benzoxazol-2-yl)spiro[3.3]heptan-2-yl]-5-(methylsulfonimidoyl)furan-2-carboxamide], the figures for the IC50 in data set [1] (setting [4]) and in data set [3] (setting [5]) were 0.939 µM and 0.898 µM, respectively. Besides, the CC50 in data set [2] is above 100 µM.

With `N=S(=O)(c1ccc(C(=O)NC2CC3(C2)CC(c2nc4cc(Cl)ccc4o2)C3)o1)C1CC1` (single isomer, unassigned) [Example 53-a, N-[6-(5-chloro-1,3-benzoxazol-2-yl)spiro[3.3]heptan-2-yl]-5-(cyclopropylsulfonimidoyl)furan-2-carboxamide], the IC50 in data set [1] (setting [4]) was found to be 1.89 µM; in data set [3] (setting [5]) it was 1.27 µM. The compound further had a CC50 in data set [2] above 10 µM.

With `NS(=O)(=O)c1ccc(C(=O)NC2CC3(C2)CC(c2nc4cc(Cl)ccc4o2)C3)o1` (single isomer, unassigned) [Example 29-b, N-[6-(5-chloro-1,3-benzoxazol-2-yl)spiro[3.3]heptan-2-yl]-5-sulfamoyl-furan-2-carboxamide], the IC50 in data set [1] (setting [4]) came to 1.55 µM; in data set [3] (setting [5]), 0.909 µM. In addition, the CC50 in data set [2] is above 100 µM.

On to `N=S(=O)(c1ccc(C(=O)NC2CC3(C2)CC(c2nc4cc(Cl)ccc4o2)C3)o1)C1CC1` (single isomer, unassigned) [Example 53-b, N-[6-(5-chloro-1,3-benzoxazol-2-yl)spiro[3.3]heptan-2-yl]-5-(cyclopropylsulfonimidoyl)furan-2-carboxamide], for which the IC50 was 6.83 µM in data set [1] (setting [4]) and 4.65 µM in data set [3] (setting [5]). The same compound registered a CC50 in data set [2] above 10 µM.

`CS(=N)(=O)c1ccc(C(=O)NC2CC3(C2)CC(c2nc4cc(Cl)ccc4o2)C3)o1` (single isomer, unassigned) [Example 52-c, N-[6-(5-chloro-1,3-benzoxazol-2-yl)spiro[3.3]heptan-2-yl]-5-(methylsulfonimidoyl)furan-2-carboxamide]: the IC50 in data set [1] (setting [4]) amounted to 5.04 µM; in data set [3] (setting [5]) it was 3.61 µM. Also, the CC50 in data set [2] was above 100 µM.

With `N=S(=O)(CC1CC1)c1ccc(C(=O)NC2CC3(C2)CC(c2nc4cc(Cl)ccc4o2)C3)o1` (single isomer, unassigned) [Example 54-d, N-[6-(5-chloro-1,3-benzoxazol-2-yl)spiro[3.3]heptan-2-yl]-5-(cyclopropylmethylsulfonimidoyl)furan-2-carboxamide], the half-inhibitory concentration (IC50) in data set [1] (setting [4]) was determined as 0.703 µM; in data set [3] (setting [5]) it was 0.694 µM. Further, the CC50 in data set [2] is above 10 µM.

Take `CCC(=O)NS(=O)(=O)c1ccc(C(=O)NC2CC3(C2)CC(c2nc4cc(Cl)ccc4o2)C3)o1` (stereo not drawn) [Example 68, (Sa)—N-[6-(5-chloro-1,3-benzoxazol-2-yl)spiro[3.3]heptan-2-yl]-5-(propanoylsulfamoyl)furan-2-carboxamide, or (Ra)—N-[6-(5-chloro-1,3-benzoxazol-2-yl)spiro[3.3]heptan-2-yl]-5-(propanoylsulfamoyl)furan-2-carboxamide]: the IC50 in data set [1] (HBV-infected primary human hepatocytes, supernatant, compound medium refreshed two times with 72-hour interval; read-out: HBsAg IC50) was 0.626 µM; in data set [3] (HBV-infected primary human hepatocytes, supernatant, compound medium refreshed two times with 72-hour interval; read-out: HbeAg IC50) it was 0.371 µM. Moreover, the CC50 in data set [2] was above 100 µM.

As to `N=S(=O)(c1ccc(C(=O)NC2CC3(C2)CC(c2nc4cc(Cl)ccc4o2)C3)o1)C1CC1` (single isomer, unassigned) [Example 53-d, N-[6-(5-chloro-1,3-benzoxazol-2-yl)spiro[3.3]heptan-2-yl]-5-(cyclopropylsulfonimidoyl)furan-2-carboxamide], the IC50 stood at 1.12 µM in data set [1] (setting [4]) and 1.34 µM in data set [3] (setting [5]). This compound also registered a CC50 in data set [2] of 92.8 µM.

For the compound `O=C(NC1CC2(C1)CC(c1nc3cc(Cl)cnc3o1)C2)c1ccc(S(=O)(=O)C2CC2)o1` (single isomer, unassigned) [Example 49-b, N-[6-(6-chlorooxazolo[5,4-b]pyridin-2-yl)spiro[3.3]heptan-2-yl]-5-cyclopropylsulfonyl-furan-2-carboxamide], the IC50 in data set [1] (setting [4]) turned out to be 0.647 µM; in data set [3] (setting [5]), 0.626 µM. The compound further returned a CC50 in data set [2] of 91.5 µM.

As for `N=S(=O)(CC1CC1)c1ccc(C(=O)NC2CC3(C2)CC(c2nc4cc(Cl)ccc4o2)C3)o1` (single isomer, unassigned) [Example 54-b, N-[6-(5-chloro-1,3-benzoxazol-2-yl)spiro[3.3]heptan-2-yl]-5-(cyclopropylmethylsulfonimidoyl)furan-2-carboxamide], the IC50 is 0.285 µM in data set [1] (setting [4]) and 0.166 µM in data set [3] (setting [5]). In addition, the CC50 in data set [2] is above 100 µM.
